Data taken from PubChem BioAssay (NCI).
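GI50 marks 50% less growth. TGI denotes the concentration required for complete inhibition of growth.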

Assays:
Experiment in all cases: NCI anticancer screen, dose series, 384-well format
786-0 renal = system: 786-0 renal
A498 renal = system: A498 renal
A549 NSCLC = system: A549 NSCLC
ACHN renal = system: ACHN renal
BT-549 breast = system: BT-549 breast
CAKI-1 renal = system: CAKI-1 renal
COLO 205 colon = system: COLO 205 colon
DU-145 prostate = system: DU-145 prostate
EKVX NSCLC = system: EKVX NSCLC
HCT-116 colon = system: HCT-116 colon
HCT-15 colon = system: HCT-15 colon
HL-60(TB) leukemia = system: HL-60(TB) leukemia
HOP-62 NSCLC = system: HOP-62 NSCLC
HOP-92 NSCLC = system: HOP-92 NSCLC
HS 578T breast = system: HS 578T breast
HT29 colon = system: HT29 colon
IGROV1 ovarian = system: IGROV1 ovarian
K-562 leukemia = system: K-562 leukemia
KM12 colon = system: KM12 colon
M14 melanoma = system: M14 melanoma
MALME-3M melanoma = system: MALME-3M melanoma
MCF7 breast = system: MCF7 breast
MDA-MB-231 breast = system: MDA-MB-231 breast
MDA-MB-435 melanoma = system: MDA-MB-435 melanoma
MDA-MB-468 breast = system: MDA-MB-468 breast
MOLT-4 leukemia = system: MOLT-4 leukemia
NCI-H226 lung = system: NCI-H226 lung
NCI-H23 lung = system: NCI-H23 lung

## Cn1cc(-c2ccc(CNc3cc(-c4cnc5cc(OCCCN6CCCC6)ccn45)ncn3)cc2)cn1
786-0 renal
  GI50: 1540 nM
  TGI: 2890 nM
A498 renal
  GI50: 1780 nM
  TGI: 3180 nM
A549 NSCLC
  GI50: 1820 nM
  TGI: 3230 nM
ACHN renal
  GI50: 1810 nM
  TGI: 3210 nM
BT-549 breast
  GI50: 1620 nM
  TGI: 2980 nM
CAKI-1 renal
  GI50: 1860 nM
  TGI: 3260 nM
COLO 205 colon
  GI50: 2010 nM
  TGI: 3450 nM
DU-145 prostate
  GI50: 1820 nM
  TGI: 3340 nM
EKVX NSCLC
  GI50: 1670 nM
  TGI: 3060 nM
HCT-116 colon
  GI50: 1630 nM
  TGI: 3020 nM
HCT-15 colon
  GI50: 1770 nM
  TGI: 3200 nM
HL-60(TB) leukemia
  GI50: 1560 nM
  TGI: 2900 nM
HOP-62 NSCLC
  GI50: 1630 nM
  TGI: 3000 nM
HOP-92 NSCLC
  GI50: 1840 nM
  TGI: 3250 nM
HS 578T breast
  GI50: 1580 nM
  TGI: 2930 nM
HT29 colon
  GI50: 969 nM
  TGI: 2150 nM
IGROV1 ovarian
  GI50: 1880 nM
  TGI: 3340 nM
K-562 leukemia
  GI50: 1500 nM
  TGI: 2850 nM
KM12 colon
  GI50: 1850 nM
  TGI: 3290 nM
M14 melanoma
  GI50: 1840 nM
  TGI: 3240 nM
MALME-3M melanoma
  GI50: 1830 nM
  TGI: 3230 nM
MCF7 breast
  GI50: 1360 nM
  TGI: 2670 nM
MDA-MB-231 breast
  GI50: 1610 nM
  TGI: 2970 nM
MDA-MB-435 melanoma
  GI50: 1770 nM
  TGI: 3170 nM
MDA-MB-468 breast
  GI50: 1800 nM
  TGI: 3210 nM
MOLT-4 leukemia
  GI50: 1500 nM
  TGI: 2830 nM
NCI-H226 lung
  GI50: 1690 nM
  TGI: 3060 nM
NCI-H23 lung
  GI50: 11300 nM
